# In PubChem BioAssay (NCI):
#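 Protocol summary: plate cells (96-well), add compound at 5 concentrations, incubate 48 h, interpolate endpoints linearly. TGI denotes the concentration required for complete inhibition of growth.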
# Columns and labels:
# Assay in all cases: NCI tumour cell line growth inhibition, 48 h
# [1] = test system: COLO 205 colon
# [2] = test system: UACC-257 melanoma
# [3] = test system: HT29 colon
# [4] = test system: A498 renal
# [5] = test system: A549 NSCLC
# [6] = test system: IGROV1 ovarian
# [7] = test system: SW-620 colon
# [8] = test system: LOX IMVI melanoma
# [9] = test system: SK-MEL-5 melanoma
# [10] = test system: DLD-1 colon
# [11] = test system: M19-MEL melanoma
# [12] = test system: MOLT-4 leukemia
# [13] = test system: NCI-H226 lung
# [14] = test system: OVCAR-4 ovarian
# [15] = test system: SNB-19 CNS
# [16] = test system: SK-OV-3 ovarian
# [17] = test system: SNB-75 CNS
# [18] = test system: RPMI-8226 leukemia
# [19] = test system: U251 CNS
# [20] = test system: RXF 393 renal
# [21] = test system: P388 leukemia
# [22] = test system: SN12C renal
# [23] = test system: MCF7 breast
# [24] = test system: CAKI-1 renal
# [25] = test system: K-562 leukemia
# [26] = test system: SF-295 CNS
# [27] = test system: NCI/ADR-RES ovarian
# [28] = test system: UACC-62 melanoma
# [29] = test system: CCRF-CEM leukemia
# [30] = test system: HCT-116 colon
# [31] = test system: NCI-H460 lung
# [32] = test system: OVCAR-3 ovarian
# [33] = test system: HOP-18 NSCLC
# [34] = test system: KM20L2 colon
smiles,measurement,setting,value
C=C1CC(OC)(C(O)C(=O)N[C@H]2OCO[C@H]3C2O[C@H](C[C@@H](CO)OC)C(C)(C)C3OC)O[C@H](C)[C@@H]1C (some centres undefined),TGI,[1],< 9.32 nM
same,TGI,[2],< 9.32 nM
same,TGI,[3],< 9.32 nM
same,TGI,[4],< 9.32 nM
same,TGI,[5],< 9.32 nM
same,TGI,[6],< 9.32 nM
same,TGI,[7],< 9.32 nM
same,TGI,[8],< 9.32 nM
same,TGI,[9],< 9.32 nM
same,TGI,[10],< 9.32 nM
same,TGI,[11],< 9.32 nM
same,TGI,[12],> 93200 nM
same,TGI,[13],< 9.32 nM
same,TGI,[14],< 9.32 nM
same,TGI,[15],< 9.32 nM
same,TGI,[16],< 9.32 nM
same,TGI,[17],< 9.32 nM
same,TGI,[18],< 9.32 nM
same,TGI,[19],< 9.32 nM
same,TGI,[20],< 9.32 nM
same,TGI,[21],> 93200 nM
same,TGI,[22],11.4 nM
same,TGI,[23],> 93200 nM
same,TGI,[24],< 9.32 nM
same,TGI,[25],> 93200 nM
same,TGI,[26],< 9.32 nM
same,TGI,[27],16 nM
same,TGI,[28],< 9.32 nM
same,TGI,[29],53.2 nM
same,TGI,[30],< 9.32 nM
same,TGI,[31],< 9.32 nM
same,TGI,[32],< 9.32 nM
same,TGI,[33],< 9.32 nM
same,TGI,[34],< 9.32 nM
